In paper PMC9834240, “Senescent cells perturb intestinal stem cell differentiation through Ptk7 induced noncanonical Wnt and YAP signaling” (Nature Communications, 2023):
“And” between values parts separate entries of the source, which are not always exact repeats. Equal entries are not always repeated.

Columns and labels:
Assay type in all cases: cell-based
[1] = system: mouse intestinal organoids; experiment: cystic organoid percentage, organoids in conditioned media (SCM/QCM) with or without inhibitors or antibodies; conditions: for percentage of cystic organoids: Fig. 3c, dialyzed, individual mice, n = 3; for effect on cystic organoid phenotype: SCM-exposed organoids; for cystic organoid percentage: DMSO = 0
Description: Twenty-four hours before collecting conditioned media (CM), MEFs were washed with serum-free DMEM twice, and serum-free DMEM was added. After 24 h in serum-free DMEM, this CM was collected, filtered using Steriflip filters (Millipore, #SE1M179M6) to remove cell debris, and concentrated using centrifugal filter units (Amicon ultra-15 centricon; Millipore, # UFC900324). […] CM was filtered and dialyzed for 24–48 h to remove the inhibitors before concentration.
(§1) The jejunum part of the small intestine was removed, flushed with PBS, opened longitudinally, then cut into 0.5 cm pieces. The collected tissues were washed with ice cold PBS multiple times by vortexing and incubated in PBS containing 2.5 mM EDTA for 5 min at 37 °C. After gentle shaking and aspiration, tissues were incubated in PBS containing 5 mM EDTA for 7 min at 37 °C. Tissues were then washed with PBS to remove EDTA and vigorously shaken to release crypts. The released crypts were passed through 70 μm strainers, washed with PBS, and pelleted by centrifugation at 200 × g.
(§2) 3-4 biological replicates of organoids from different mice were used per condition. Organoids were cultured in the indicated media, inhibitors, antibodies and/or recombinant proteins for 5 d and fixed in 4% formaldehyde in PBS. Organoids were imaged with a 4× Plan Fluor objective (NA: 0.13, Nikon) on a Nikon Ti-E inverted microscope equipped with a Neo scMOS camera (Andor, Oxford Instruments), a linear encoded automated stage (Applied Scientific Instrumentation), all run by NIS Elements software (Nikon). Organoids were imaged in brightfield and images covering the whole well were stitched and focused into one image projection with an extended depth of focus module (EDF; Nikon). One hundred to 200 organoids per replicate per condition were counted and used for quantification. The number of budding organoids in each condition was normalized by the number of budding organoids in untreated or DMSO treated controls to calculate cystic organoid percentage:1 Cysticorganoidpercentage=100×1−Numberofbuddingorganoidsfromexperiment/Numberofbuddingorganoidsfromcontrol

[2] = system: mouse intestinal organoids; experiment: cystic organoid percentage, co-culture with quiescent or senescent intestinal fibroblasts; design: key: % = 100×(1 − budding organoids treated/budding organoids control); conditions: relative to DMSO = 0
Description: as §2
Mouse intestinal fibroblasts were purchased from Cell Biologics (#C57-6231) and cultured in Complete Fibroblast Medium (Cell Biologics, M2267) at 37 °C and 5% CO2. Cellular quiescence and senescence in mouse intestinal fibroblasts were induced by the similar methods described earlier for MEFs with minor modifications. Briefly, cellular quiescence was induced by culturing the fibroblasts in low serum (0.5% FBS), and cellular senescence was induced by 500 nM doxorubicin treatment for 5 days (doxorubicin; Sigma-Aldrich, #44583). Once cellular quiescence or senescence was induced, MEFs were maintained at 37 °C, 5% CO2, and 3% O2 for another 5 days. The quiescent or senescent fibroblasts were dissociated using 0.05% Trypsin-EDTA (Gibco, #25300-054) and counted for seeding. The same number of quiescent and senescent fibroblasts (5.2 × 10^4 cells) were mixed with intestinal organoids making total volume of 20 μl of Matrigel: organoid culture media mix, which was mounted on a 48 well plate.

[3] = system: mouse intestinal organoids; experiment: inhibition of Wnt5a-induced cystic organoids; design: key to cystic organoids (sheet SF.5b): % cystic = 100×(1 − budding organoids treated/control); conditions: relative to Untreated = 0
Description: as §1, with “g. Resuspended crypts were mixed with Matrigel (Corning, #356231; Lot#8218007) and pipetted into culture plates. After mixture of crypts and Matrigel solidified, IntestiCult Organoid Growth Medium (Stem Cell Technologies, #06005; Lots #1000021927, #1000034230, #1000037372) was added. Seven days after seeding, organoids were resuspended in dissociation buffer (Gentle Cell Dissociation Reagent; Stem Cell Technologies, #07174), dissociated by pipetting, and seeded for experiments.” for “g.”
as §2

In the case of `CNC(=O)[C@H](Cc1c[nH]c2ccccc12)NC(=O)[C@@H](CC(=O)NO)CC(C)C` [GM6001], the “percentage of cystic organoids” value ([1]; SCM from MEFs exposed to GM6001 (20 uM, 24 h)) is reported as 29.2391% and 41.0714% and 39.5302%.
With Verteporfin the “effect on cystic organoid phenotype” value [1] was “strongly reduced the cystic organoid percentage”.
`O=C(CSc1nc2c(c(=O)n1-c1ccccc1)SCC2)Nc1ccc(-c2ccccc2)cn1` [IWP-L6] was tested, and the cystic organoid percentage ([1]; SF.3d, SCM + inhibitor, replicate 1) was 46.6221, the cystic organoid percentage ([1]; SF.3d, SCM + inhibitor, replicate 2) was 58.2456 and the cystic organoid percentage ([1]; SF.3d, SCM + inhibitor, replicate 3) was 31.9347.
Work on `O=C(O)c1ccc2c3c1cccc3c(=O)n1c3ccccc3nc21` [STO609] yielded a cystic organoid percentage ([1]; Fig.5l, 5uM, no conditioned medium, replicate 1) of -8.274, a cystic organoid percentage ([1]; Fig.5l, 5uM, no conditioned medium, replicate 2) of -5.955 and a cystic organoid percentage ([1]; Fig.5l, 5uM, no conditioned medium, replicate 3) of -8.683. For the same molecule, the cystic organoid percentage ([1]; Fig.5l, QCM + 5uM, replicate 1) was -3.426, the cystic organoid percentage ([1]; Fig.5l, QCM + 5uM, replicate 2) was 1.872 and the cystic organoid percentage ([1]; Fig.5l, QCM + 5uM, replicate 3) was -3.616. It also gave a cystic organoid percentage ([1]; Fig.5l, SCM + 5um, replicate 1) of 16.8399, a cystic organoid percentage ([1]; Fig.5l, SCM + 5um, replicate 2) of 8.659 and a cystic organoid percentage ([1]; Fig.5l, SCM + 5um, replicate 3) of 6.694.
In the case of cyclosporin A, the “effect on cystic organoid phenotype” value [1] is reported as “had no effect on this phenotype”, the “cystic organoids (sheet SF.5d)” value ([2]; 1 uM CsA, no fibroblasts, replicate 1) is reported as -0.1051 and the “cystic organoids (sheet SF.5d)” value ([2]; 1 uM CsA, no fibroblasts, replicate 2) is reported as -6.5368. For the same molecule, the “cystic organoids (sheet SF.5d)” value ([2]; 1 uM CsA, no fibroblasts, replicate 3) was 5.663, the “cystic organoids (sheet SF.5d)” value ([2]; Q + 1um CsA (quiescent fibroblasts), replicate 1) was 19.8791 and the “cystic organoids (sheet SF.5d)” value ([2]; Q + 1um CsA (quiescent fibroblasts), replicate 2) was 16.6126. The “cystic organoids (sheet SF.5d)” value ([2]; Q + 1um CsA (quiescent fibroblasts), replicate 3) was 9.858, the “cystic organoids (sheet SF.5d)” value ([2]; SEN + 1uM CsA (senescent fibroblasts), replicate 1) was 45.7387 and the “cystic organoids (sheet SF.5d)” value ([2]; SEN + 1uM CsA (senescent fibroblasts), replicate 2) was 66.7022. The “cystic organoids (sheet SF.5d)” value ([2]; SEN + 1uM CsA (senescent fibroblasts), replicate 3) was 42.5108.
Molecule `O=C(CCl)c1ccccc1Nc1cccc(C(F)(F)F)c1` [TED347] has a cystic organoid percentage ([1]; Fig.7e, 2 uM, no conditioned medium, replicate 1) of -4.167, a cystic organoid percentage ([1]; Fig.7e, 2 uM, no conditioned medium, replicate 2) of 2.041 and a cystic organoid percentage ([1]; Fig.7e, 2 uM, no conditioned medium, replicate 3) of 3.815. It also gave a cystic organoid percentage ([1]; Fig.7e, QCM + 2 uM, replicate 1) of 3.646, a cystic organoid percentage ([1]; Fig.7e, QCM + 2 uM, replicate 2) of 2.9703 and a cystic organoid percentage ([1]; Fig.7e, QCM + 2 uM, replicate 3) of -0.09671. For the same molecule, the cystic organoid percentage ([1]; Fig.7e, SCM + 2 uM, replicate 1) was 13.1944, the cystic organoid percentage ([1]; Fig.7e, SCM + 2 uM, replicate 2) was 21.2963 and the cystic organoid percentage ([1]; Fig.7e, SCM + 2 uM, replicate 3) was 18.1818. For the same molecule, the “effect on cystic organoid phenotype” value [1] was “reduced the percentage of cystic organoids”.
Molecule `CN([C@@H](Cc1ccc(OS(=O)(=O)c2cccc3cnccc23)cc1)C(=O)N1CCN(c2ccccc2)CC1)S(=O)(=O)c1cccc2cnccc12` [KN62] has a cystic organoid percentage ([1]; Fig.5l, 10uM, no conditioned medium, replicate 1) of 0.2849, a cystic organoid percentage ([1]; Fig.5l, 10uM, no conditioned medium, replicate 2) of -0.03848 and a cystic organoid percentage ([1]; Fig.5l, 10uM, no conditioned medium, replicate 3) of 4.343. It also gave a cystic organoid percentage ([1]; Fig.5l, QCM + 10uM, replicate 1) of -7.21, a cystic organoid percentage ([1]; Fig.5l, QCM + 10uM, replicate 2) of -3.018 and a cystic organoid percentage ([1]; Fig.5l, QCM + 10uM, replicate 3) of -12.8255. The cystic organoid percentage ([1]; Fig.5l, SCM + 10um, replicate 1) was -3.501, the cystic organoid percentage ([1]; Fig.5l, SCM + 10um, replicate 2) was 1.186 and the cystic organoid percentage ([1]; Fig.5l, SCM + 10um, replicate 3) was 0.111.
In the case of `CN1CCN(CCCN2c3ccccc3Sc3ccc(C(F)(F)F)cc32)CC1` [Trifluoperazine A], the “cystic organoids (sheet SF.5b)” value ([3]; 100 nM Trifluoperazine A, no Wnt5a, replicate 1) is reported as 1.842, the “cystic organoids (sheet SF.5b)” value ([3]; 100 nM Trifluoperazine A, no Wnt5a, replicate 2) is reported as -0.6895 and the “cystic organoids (sheet SF.5b)” value ([3]; 100 nM Trifluoperazine A, no Wnt5a, replicate 3) is reported as -1.481. For the same molecule, the “cystic organoids (sheet SF.5b)” value ([3]; 100 nM Trifluoperazine A, no Wnt5a, replicate 4) was 3.596, the “cystic organoids (sheet SF.5b)” value ([3]; 1 uM Trifluoperazine A, no Wnt5a, replicate 1) was -0.2581 and the “cystic organoids (sheet SF.5b)” value ([3]; 1 uM Trifluoperazine A, no Wnt5a, replicate 2) was -2.568. For the same molecule, the “cystic organoids (sheet SF.5b)” value ([3]; 1 uM Trifluoperazine A, no Wnt5a, replicate 3) was -0.6142, the “cystic organoids (sheet SF.5b)” value ([3]; 1 uM Trifluoperazine A, no Wnt5a, replicate 4) was -2.171 and the “cystic organoids (sheet SF.5b)” value ([3]; Wnt5a + 100 nM Trifluoperazine A, replicate 1) was 12.7683. For the same molecule, the “cystic organoids (sheet SF.5b)” value ([3]; Wnt5a + 100 nM Trifluoperazine A, replicate 2) was 12.5989, the “cystic organoids (sheet SF.5b)” value ([3]; Wnt5a + 100 nM Trifluoperazine A, replicate 3) was 11.621 and the “cystic organoids (sheet SF.5b)” value ([3]; Wnt5a + 100 nM Trifluoperazine A, replicate 4) was 16.7645. For the same molecule, the “cystic organoids (sheet SF.5b)” value ([3]; Wnt5a + 1 uM Trifluoperazine A, replicate 1) was 9.106, the “cystic organoids (sheet SF.5b)” value ([3]; Wnt5a + 1 uM Trifluoperazine A, replicate 2) was 10.2184 and the “cystic organoids (sheet SF.5b)” value ([3]; Wnt5a + 1 uM Trifluoperazine A, replicate 3) was 3.882. For the same molecule, the “cystic organoids (sheet SF.5b)” value ([3]; Wnt5a + 1 uM Trifluoperazine A, replicate 4) was 10.8434.
`CC(C)C[C@H](CC(=O)NO)C(=O)N[C@@H](Cc1ccc2ccccc2c1)C(=O)N[C@@H](C)C(=O)NCCN` [TAPI-1] was tested, and the “percentage of cystic organoids” value ([1]; SCM from MEFs exposed to TAPI-1 (50 uM, 24 h)) was 21.6102% and 25.641% and 30.6707%.
